Data from the supplement of paper PMC13207355.
Counter-ions that a name gives are not always drawn.

Key:
Conditions in all cases: exposure time: 72 h
E31 [1] = patient-derived glioblastoma stem cells of proneural subtype; assay: surviving fraction (nuclei count normalised to DMSO); higher = more cells surviving (less toxic)
E21 [2] = patient-derived glioblastoma stem cells of mesenchymal subtype; assay: as above
E28 [3] = patient-derived glioblastoma stem cells of classical subtype; assay: as above
E34 [4] = patient-derived glioblastoma stem cells of proneural subtype; assay: as above
E57 [5] = patient-derived glioblastoma stem cells of mesenchymal subtype; assay: as above
FT3469 [6] = normal neural stem cell line; assay: as above
E13 [7] = patient-derived glioblastoma stem cells of classical subtype; assay: as above
E31 [8] = assay: phenotypic distance (Euclidean, principal components) from DMSO controls (arbitrary units); higher = stronger morphological change
E21 [9] = assay: as above
E28 [10] = assay: as above
E34 [11] = assay: as above
E57 [12] = assay: as above
FT3469 [13] = assay: as above
E13 [14] = assay: as above
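For phenotypic distance (Euclidean, principal components) from DMSO controls in this document: cell Painting imaging in 384-well plates, CellProfiler features reduced to at least 20 principal components, Euclidean distance versus same-plate DMSO vehicle wells (0.1% v/v), median over six images per well.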
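For surviving fraction (nuclei count normalised to DMSO) in this document: nuclei counted by high-content imaging of Hoechst-stained cells in laminin-coated 384-well plates, relative to 0.1% DMSO vehicle wells, with staurosporine as cell-death control.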

OCCN1CCN(CCCN2c3ccccc3Sc3ccc(C(F)(F)F)cc32)CC1 [Fluphenazine dihydrochloride]
Conditions | phenotypic distance | surviving fraction
E13 [7], 4.1 nM | – | 0.959
E13 [7], 12.3 nM | – | 1.02
E13 [7], 37 nM | – | 1
E13 [7], 111.1 nM | – | 1
E13 [7], 333.3 nM | – | 0.966
E13 [7], 1000 nM | – | 0.816
E13 [7], 3000 nM | – | 0.804
E13 [14], 4.1 nM | 0.431 | –
E13 [14], 12.3 nM | 0.337 | –
E13 [14], 37 nM | 0.907 | –
E13 [14], 111.1 nM | 0.69 | –
E13 [14], 333.3 nM | 1.57 | –
E13 [14], 1000 nM | 1.8 | –
E13 [14], 3000 nM | 2.01 | –
E21 [2], 4.1 nM | – | 0.932
E21 [2], 12.3 nM | – | 0.986
E21 [2], 37 nM | – | 1.08
E21 [2], 111.1 nM | – | 0.96
E21 [2], 333.3 nM | – | 1.01
E21 [2], 1000 nM | – | 0.989
E21 [2], 3000 nM | – | 0.938
E21 [9], 4.1 nM | 0.339 | –
E21 [9], 12.3 nM | 0.421 | –
E21 [9], 37 nM | 0.601 | –
E21 [9], 111.1 nM | 0.795 | –
E21 [9], 333.3 nM | 0.745 | –
E21 [9], 1000 nM | 0.728 | –
E21 [9], 3000 nM | 1.26 | –
E28 [3], 4.1 nM | – | 1.13
E28 [3], 12.3 nM | – | 0.846
E28 [3], 37 nM | – | 1.1
E28 [3], 111.1 nM | – | 1.04
E28 [3], 333.3 nM | – | 0.899
E28 [3], 1000 nM | – | 0.923
E28 [3], 3000 nM | – | 1.05
E28 [10], 4.1 nM | 0.832 | –
E28 [10], 12.3 nM | 0.622 | –
E28 [10], 37 nM | 0.706 | –
E28 [10], 111.1 nM | 0.624 | –
E28 [10], 333.3 nM | 0.662 | –
E28 [10], 1000 nM | 0.755 | –
E28 [10], 3000 nM | 0.877 | –
E31 [1], 4.1 nM | – | 1.01
E31 [1], 12.3 nM | – | 1.18
E31 [1], 37 nM | – | 1.02
E31 [1], 111.1 nM | – | 0.932
E31 [1], 333.3 nM | – | 1.09
E31 [1], 1000 nM | – | 1.22
E31 [1], 3000 nM | – | 1.13
E31 [8], 4.1 nM | 0.66 | –
E31 [8], 12.3 nM | 0.671 | –
E31 [8], 37 nM | 0.803 | –
E31 [8], 111.1 nM | 1.17 | –
E31 [8], 333.3 nM | 1.95 | –
E31 [8], 1000 nM | 2.4 | –
E31 [8], 3000 nM | 2.16 | –
E34 [4], 4.1 nM | – | 0.901
E34 [4], 12.3 nM | – | 0.986
E34 [4], 37 nM | – | 0.911
E34 [4], 111.1 nM | – | 0.993
E34 [4], 333.3 nM | – | 1.2
E34 [4], 1000 nM | – | 1.05
E34 [4], 3000 nM | – | 1.06
E34 [11], 4.1 nM | 0.947 | –
E34 [11], 12.3 nM | 0.375 | –
E34 [11], 37 nM | 0.734 | –
E34 [11], 111.1 nM | 0.93 | –
E34 [11], 333.3 nM | 1.15 | –
E34 [11], 1000 nM | 0.764 | –
E34 [11], 3000 nM | 1.17 | –
E57 [5], 4.1 nM | – | 1.02
E57 [5], 12.3 nM | – | 1.03
E57 [5], 37 nM | – | 1.03
E57 [5], 111.1 nM | – | 1
E57 [5], 333.3 nM | – | 1.12
E57 [5], 1000 nM | – | 1.02
E57 [5], 3000 nM | – | 1.15
E57 [12], 4.1 nM | 0.619 | –
E57 [12], 12.3 nM | 0.504 | –
E57 [12], 37 nM | 0.711 | –
E57 [12], 111.1 nM | 0.787 | –
E57 [12], 333.3 nM | 0.901 | –
E57 [12], 1000 nM | 0.778 | –
E57 [12], 3000 nM | 1.6 | –
FT3469 [6], 4.1 nM | – | 0.838
FT3469 [6], 12.3 nM | – | 1.09
FT3469 [6], 37 nM | – | 0.931
FT3469 [6], 111.1 nM | – | 1
FT3469 [6], 333.3 nM | – | 1.04
FT3469 [6], 1000 nM | – | 0.894
FT3469 [6], 3000 nM | – | 0.84
FT3469 [13], 4.1 nM | 0.785 | –
FT3469 [13], 12.3 nM | 0.668 | –
FT3469 [13], 37 nM | 0.632 | –
FT3469 [13], 111.1 nM | 0.808 | –
FT3469 [13], 333.3 nM | 0.87 | –
FT3469 [13], 1000 nM | 1.41 | –
FT3469 [13], 3000 nM | 1.36 | –
